Experimental data: paper PMC11096237, “Utilizing a structure-based virtual screening approach to discover potential LSD1 inhibitors” (Journal of Cancer Research and Clinical Oncology, 2024)

Target: T1, LSD1 (Homo sapiens, UniProt O60341)
T1 construct: gene KDM1A
Experiment: Amplex Red/HRP-coupled fluorescence demethylase assay with purified recombinant LSD1 and H3K4me2
Format: biochemical
Description: Amplex Red/HRP-coupled fluorescence demethylase assay with purified recombinant LSD1 and H3K4me2 on LSD1 | […]

IC50: 99 nM
Compound: O=C(CNC(=O)Cc1ccccc1)NCC(=O)OCC(=O)c1ccc(OCc2ccccc2)cc1 [ZINC10039815]
